For one data set, the target named is T1, 5-HT1A receptors (Rattus norvegicus, UniProt P19327).
T1 sequence (P19327 1-422): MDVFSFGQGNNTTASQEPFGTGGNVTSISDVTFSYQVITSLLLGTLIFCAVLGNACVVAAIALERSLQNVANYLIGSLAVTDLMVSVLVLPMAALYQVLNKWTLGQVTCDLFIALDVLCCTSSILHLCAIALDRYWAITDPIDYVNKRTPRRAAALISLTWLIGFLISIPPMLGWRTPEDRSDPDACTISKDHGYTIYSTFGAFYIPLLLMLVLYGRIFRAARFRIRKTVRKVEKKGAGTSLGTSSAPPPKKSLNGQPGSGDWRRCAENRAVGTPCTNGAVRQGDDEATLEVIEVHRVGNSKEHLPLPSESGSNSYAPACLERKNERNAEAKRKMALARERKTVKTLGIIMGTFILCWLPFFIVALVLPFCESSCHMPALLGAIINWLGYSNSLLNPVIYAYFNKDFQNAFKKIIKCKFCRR
Particulars: for Ki: read-out: Ki, nM 5-HT1A, [3H]-8-OH-DPAT, rat hippocampal membranes.

Data set [1] addresses T2, 5-HT2A receptors (Rattus norvegicus, UniProt P14842).
Experimental: (§1) Radioligand Binding Assay at Rat Cortex Membranes 5-HT2A Receptors. […] Rats were killed by decapitation, the brain was quickly removed, and the cortex was dissected. […] The homogenate was centrifuged at 2000 g for 10 min at 4° C. The supernatant was saved, and the pellet was resuspended in 25 mL of buffer. The surnatantes were collected and diluted 1:10 w/w with 10 mM Tris pH 7.4. The homogenate was centrifugated at 35000 g for 15 min at 4° C. The supernatant was discarded, and the final pellet was stored at −80° C. until used. […] For competitive inhibition experiments various concentrations of drugs studied were incubated. […] Samples were incubated at 37° C. for 15 min and then filtered on Whatman GF/B glass microfiber filters.
(§2) Statistical Analysis. […] PRISM® program. The value for the inhibition constant, Ki, was calculated by using the Cheng-Prusoff equation.
Data set [2] concerns the target T3, rat cloned 5-HT7 receptor (Rattus norvegicus, UniProt P32305).
T3 construct: purchased PerkinElmer-NEN; host or cells: HEK-293
Nature of the data set: Radioligand binding assay ([3H]-LSD) at rat cloned 5-HT7Rs. To be noted: for Ki: [3H]-LSD, rat recombinant 5-HT7R expressed in HEK-293 cells. The procedure: Rat recombinant serotonin 5-HT7R expressed in HEK-293 cells were purchased from PerkinElmer-NEN (Betsville, Md., USA).
Radioligand Binding Assay at Rat Cloned 5-HT7Rs. Binding of [^3H]-LSD at rat cloned 5-HT7 receptor was performed according to a known method. In 1 mL of incubation buffer (50 mM Tris, 10 mM MgCl2 and 0.5 mM EDTA, pH 7.4) were suspended 30 μg of membranes, 2.5 nM [^3H]-LSD, the drugs or reference compound (six to nine concentrations). The samples were incubated for 60 min at 37° C. The incubation was stopped by rapid filtration on GF/A glass fiber filters (pre-soaked in 0.5% polyethylenimine for 30 min). The filters were washed with 3 ? 3 mL of ice-cold buffer (50 mM Tris, pH 7.4). Nonspecific binding was determined in the presence of 10 μM 5-CT. Approximately 90% of specific binding was determined under these conditions.

The target in the next data set is 5-HT7 receptor (Cavia porcellus, UniProt P50407). As to the kind of experiment: Isolated guinea-pig ileum assay: relaxation of substance P-induced contraction.
Another data set deals with hamsters. As to the kind of experiment: Circadian phase shift in hamsters after injection. The class given is in vivo. From the text:
This provides evidence that no additional receptor subtype, such as the 5-HT1A receptor or the 5-HT5A receptor, is necessary for this effect.

Data set [3] deals with T2, 5-HT2A receptors. Nature of the data set: Radioligand binding assay ([3H]-ketanserin) at rat cortex membranes 5-HT2A receptors.
Experimental: as §1, §2
Data set [4] relates to isolated guinea-pig ileum. Nature of the data set: Substance P contraction of isolated guinea-pig ileum (concentration-response). Particulars: 100 nM. From the text: Isolated Guinea-Pig Ileum Assay.

Structures can show the parent of a compound that is named as a salt. No end group written: not given here.

The results in this text go back to patent US7488730B2, “N-(1,2,3,4-tetrahydronaphthalen-1-yl)-4-phenyl-1-piperazinealkylamide derivatives, and therapeutic use thereof as 5-HT7 receptor ligands” (Universita Degli Studi Di Bari, priority 2005, dated 2009).

T2 sequence (P14842 whole entry): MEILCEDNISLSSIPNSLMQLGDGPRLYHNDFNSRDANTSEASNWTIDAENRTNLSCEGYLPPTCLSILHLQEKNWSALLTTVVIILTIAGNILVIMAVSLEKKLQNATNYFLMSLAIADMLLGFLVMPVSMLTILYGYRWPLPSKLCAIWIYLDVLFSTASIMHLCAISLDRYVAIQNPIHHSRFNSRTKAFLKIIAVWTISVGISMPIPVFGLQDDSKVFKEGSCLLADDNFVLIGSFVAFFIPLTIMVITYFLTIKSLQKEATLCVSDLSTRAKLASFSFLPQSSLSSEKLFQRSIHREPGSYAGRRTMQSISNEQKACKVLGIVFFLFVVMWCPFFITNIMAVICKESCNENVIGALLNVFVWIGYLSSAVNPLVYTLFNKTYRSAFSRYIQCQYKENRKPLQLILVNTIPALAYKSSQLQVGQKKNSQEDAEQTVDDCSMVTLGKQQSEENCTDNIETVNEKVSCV
5-HT7 receptor, sequence (P50407 whole entry): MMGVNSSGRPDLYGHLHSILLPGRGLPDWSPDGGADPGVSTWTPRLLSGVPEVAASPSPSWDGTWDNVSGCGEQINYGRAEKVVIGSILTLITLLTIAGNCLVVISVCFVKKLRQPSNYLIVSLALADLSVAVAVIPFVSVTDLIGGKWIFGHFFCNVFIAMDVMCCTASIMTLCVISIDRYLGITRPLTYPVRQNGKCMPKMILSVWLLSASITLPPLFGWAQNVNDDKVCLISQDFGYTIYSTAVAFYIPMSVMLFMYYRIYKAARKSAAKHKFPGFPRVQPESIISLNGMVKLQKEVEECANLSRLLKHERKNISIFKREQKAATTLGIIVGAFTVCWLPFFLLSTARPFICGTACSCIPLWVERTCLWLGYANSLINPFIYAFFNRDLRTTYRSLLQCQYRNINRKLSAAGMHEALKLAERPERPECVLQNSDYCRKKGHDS
T3 sequence (P32305 whole entry): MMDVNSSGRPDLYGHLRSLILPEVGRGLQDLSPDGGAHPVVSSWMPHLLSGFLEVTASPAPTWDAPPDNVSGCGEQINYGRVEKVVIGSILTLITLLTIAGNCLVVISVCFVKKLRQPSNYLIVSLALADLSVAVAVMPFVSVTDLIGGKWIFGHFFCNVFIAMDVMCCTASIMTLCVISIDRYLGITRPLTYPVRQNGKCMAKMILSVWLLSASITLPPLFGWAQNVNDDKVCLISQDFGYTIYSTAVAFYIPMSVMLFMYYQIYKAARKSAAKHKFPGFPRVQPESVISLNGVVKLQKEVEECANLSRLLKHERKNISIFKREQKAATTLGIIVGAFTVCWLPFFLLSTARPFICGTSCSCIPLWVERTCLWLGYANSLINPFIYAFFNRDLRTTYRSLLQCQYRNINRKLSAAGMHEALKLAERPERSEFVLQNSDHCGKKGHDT
Experimental for 5-HT1A receptors: Radioligand Binding Assay at Rat Hippocampal Membranes 5-HT1A Receptors. Binding experiments were performed according to a known method. Rats were killed by decapitation, the brain was quickly removed, and the hippocampus was dissected. […] The homogenate was centrifuged at 48000 g for 15 min at 4° C. The supernatant was discarded, and the pellet was resuspended in 25 mL of buffer, then preincubated for 10 min at 37° C. The homogenate was centrifuged at 48000 g for 15 min at 4° C. The supernatant was discarded, and the final pellet was stored at −80° C. until used. […] For competitive inhibition experiments various concentrations of drugs studied were incubated. […] Samples were incubated at 37° C. for 20 min and then filtered on Whatman GF/B glass microfiber filters.
Statistical Analysis. […] The value for the inhibition constant, Ki, was calculated by using the Cheng-Prusoff equation.

Take `COc1ccc2c(c1)C(NC(=O)CCCCN1CCN(c3ccccc3OC)CC1)CCC2` (centres unmarked) (as salt: HCl) (hydrate or solvate) [Compound 21]: the melting point is 187 to 188 °C.
The compound `COc1ccccc1N1CCN(CCCCC(=O)NC2CCCc3ccccc32)CC1` (centres unmarked) (as salt: HCl) (hydrate or solvate) [Compound 27, 4-(2-Methoxyphenyl)-N-(1,2,3,4-tetrahydronaphthalen-1-yl)-1-piperazinepentanamide] displayed a melting point of 199 to 200 °C.
As to `N#Cc1ccccc1N1CCN(CCCCCC(=O)NC2CCCc3ccccc32)CC1` (centres unmarked) (as salt: HCl) (hydrate or solvate) [Compound 33], the melting point fell in the range of 175 to 178 °C.
In the case of `CC(=O)c1ccccc1N1CCN(CCCCCC(=O)NC2CCCc3ccccc32)CC1` (centres unmarked) (as salt: HCl) (hydrate or solvate) [Compound 34, 4-(2-Acetylphenyl)-N-(1,2,3,4-tetrahydronaphthalen-1-yl)-1-piperazinehexanamide], the melting point lay in the range of 136 to 139 °C.
Same read-out and setting: to `COc1ccc(OC)c(N2CCN(CCCCCC(=O)NC3CCCc4ccccc43)CC2)c1` (centres unmarked) (as salt: HCl) (hydrate or solvate) [Compound 36] belongs 124 to 126 °C; to `CS(=O)(=O)c1ccccc1N1CCN(CCCCCC(=O)NC2CCCc3ccccc32)CC1` (centres unmarked) (as salt: HCl) (hydrate or solvate) [Compound 45], 120 to 122 °C; to `COc1ccc2c(c1)C(NC(=O)CCCCCN1CCN(c3ccccc3OC)CC1)CCC2` (centres unmarked) (as salt: HCl) [Compound 22], 175 to 178 °C.
Same read-out and setting: as for `COc1ccccc1N1CCN(CCCC(=O)NC2CCCc3cccc(OC)c32)CC1` (centres unmarked) (as salt: HCl) [Compound 23, N-(8-Methoxy-1,2,3,4-tetrahydronaphthalen-1-yl)4-(2-methoxyphenyl)-1-piperazinebutanamide], the figure is 131 to 133 °C.
With `CC(=O)c1ccc(N2CCN(CCCCCC(=O)NC3CCCc4ccccc43)CC2)cc1` (centres unmarked) (as salt: HCl) [Compound 42], the melting point was in the range of 112 to 114 °C.
In the case of `NC(=O)c1ccccc1N1CCN(CCCCCC(=O)NC2CCCc3ccccc32)CC1` (centres unmarked) [Compound 43], the Ki at 5-HT1A receptors was 494 ± 35 nM; in data set [2] it was 229 ± 12 nM. Besides, the “5-HT2A, percentage in parentheses after >4000” value at 5-HT2A receptors [1] is recorded as 9%.
On 5-HT7 receptor, `CSc1ccccc1N1CCN(CCCCCC(=O)NC2CCCc3ccccc32)CC1` (centres unmarked) [Compound 44, 4-(2-Methylthiophenyl)-N-(1,2,3,4-tetrahydronaphthalen-1-yl)-1-piperazinehexanamide] showed an EC50 of 2560 nM. In addition, the “PA2 (vs SB-269970)” value on 5-HT7 receptor (in the presence of antagonist SB-269970 (0.1 μM-3 μM)) was found to be 7.70 ± 0.80. Moreover, the “5-HT7 intrinsic activity (in words)” value on 5-HT7 receptor (isolated guinea-pig ileum) is “Full agonists”. Also, the Emax at 5-HT7 receptor (read-out: Maximal Effect %) was 100%. In addition, the Schild plot at 5-HT7 receptor (vs SB-269970, p value in parentheses) is on record as 0.9 (p < 0.0001). Further, the “selectivity over 5-HT1A receptors” value on 5-HT1A receptors (5-HT7R versus 5-HT1A) was found to be 200 fold. For the same compound, the Ki was 52.7 ± 3.2 nM on 5-HT1A receptors; 0.22 nM in data set [2]; 326 ± 35 nM at 5-HT2A receptors [3] (read-out: Ki, nM 5-HT2A, [3H]-ketanserin, rat cortex membranes). Besides, the circadian phase shift entry in the data set with hamsters (microinjection into the dorsal raphe) is “cause phase shift advances”. Also, in data set [2], the “5-HT7R affinity (in words)” value is given as “high affinity”. Further, on 5-HT2A receptors [3] (5-HT7R versus 5-HT2A), the “selectivity over 5-HT2A receptors” value was greater than 1000 fold.
`CS(=O)(=O)c1ccccc1N1CCN(CCCCCC(=O)NC2CCCc3ccccc32)CC1` (centres unmarked) [Compound 45]: the Ki was 3120 ± 260 nM at 5-HT1A receptors and 298 ± 16 nM in data set [2]. In addition, the “5-HT2A, percentage in parentheses after >4000” value at 5-HT2A receptors [1] is 38%.
In the case of `CC1CCN(CC[C@H]2CCCN2S(=O)(=O)c2cccc(O)c2)CC1` [SB-26770-A, reference compound], the “effect on phase shifts caused by compound 44” value with hamsters (microinjection into the dorsal raphe before compound 44, relative to vehicle pretreatment) is “significantly block phase shifts”.
In the case of “substance P: contracting agent of the guinea-pig ileum assay, purchased from Tocris Cookson (RPKPQQFFGLM; ends and bridges not checked; UniProt P20366 58-68, looked up)”, the “contraction, % of maximum contraction” value in data set [4] is given as 80%.

As a reminder, the melting point is the temperature of the solid-liquid transition. As usually defined, the Ki is a dissociation constant, usually derived from enzyme kinetics or from competition with a known ligand. As usually defined, the EC50 is the concentration at which the effect is half-maximal.
